In article PMC11303563 (Communications Medicine, 2024):
“And” between values parts separate entries of the source, which are not always exact repeats. Equal entries are not always repeated.

How the values were obtained:
[1] = In vitro blood-brain barrier permeability assay (BBB kit RBT-24H); format: in vitro ADME, rat; conditions: rat, 10 μM on luminal side, read-out: apparent permeability (Papp)
Procedure: Therefore, we tested BBB transparency in vitro using the BBB kit RBT-24H (PharmaCo-Cell)[35]. […] Blood-brain barrier permeability assay The blood-brain barrier (BBB) transparency of TH analogs was assessed in vitro using RBT-24H (PharmaCo-Cell)[5] according to the manufacturer 's protocol. […] After 30 min, the assay buffer in the wells mimicking the abluminal side was collected, and the concentration of the compounds was measured using liquid chromatography-mass spectrometry (LC-MS). […] These tips were preconditioned with 20 μL of acetonitrile and 20 μL of 0.1% TFA in purified water. 100 μL of the samples were loaded onto the preconditioned tips, washed with 200 μL of DW, and then eluted with 10 μL of acetonitrile. Triazine (1% vol/vol) was added to the eluent as an internal standard. […] 3 μm; Imtakt, Kyoto, Japan). All the experiments were performed using an Ultimate 3000 UHPLC system coupled with a Q Exactive Plus Orbitrap mass spectrometer (Thermo Fisher Scientific). […] Data were shown as mean ± standard deviation (n=3).

[2] = test system: high-fat diet (HFD)-induced obesity model mice; assay: Body weight of high-fat diet-induced obesity model mice; format: in vivo, C57BL/6J mice; design: Body weight, Mean Diff. ND vs. treated: unit not given here; conditions: for Body weight, 95.00% CI of diff. ND vs. treated / Body weight, Mean Diff. ND vs. treated: ND group as comparator; for Body weight, 95.00% CI of diff. ND vs. treated / Body weight, Mean Diff. ND vs. treated / Body weight, 95.00% CI of diff. Vehicle vs. treated / Body weight, Mean Diff. Vehicle vs. treated: Tukey's multiple comparisons test; for Body weight, Mean Diff. Vehicle vs. treated / Body weight, group mean (Fig. 3a) / Body weight, individual mice (Fig. 3a): in g (unit assumed); for Body weight, group mean (Fig. 3a): n 10
Procedure: The injection was given 6 h after light on. Food consumption and body weights were measured weekly. Food and water were provided to the animals ad libitum. The animals were treated according to the guidelines of Nagoya University, and all experimental procedures were approved by the Animal Experiment Committee of Nagoya University (A210715-003).
(§1) Epididymal adipose tissue was weighed.
(§2) Fig. 3 Effects of intraperitoneal injection of TH analogs on body weight and deposition of visceral fat. […] After three weeks of injection, body weight (a), and weight of the epididymal adipose tissue (b) were measured.

[3] = test system: THR-regulated genes and lipid metabolism-related genes in the liver
[4] = test system: high-fat diet (HFD)-induced obesity model mice; assay: Serum lipid analysis (total cholesterol, triglycerides) in HFD mice; format: in vivo, C57BL/6J mice; design: Serum TC (Fig. 4a), individual mouse values / Serum TG (Fig. 4b), individual mouse values / Serum TC (Fig. 4a), Mean Diff. ND vs. treatment (Tukey) / Serum TC (Fig. 4a), Mean Diff. Vehicle vs. treatment (Tukey) / Serum TC (Fig. 4a), group mean (Mean 2) / Mean Diff., ND vs. treated (Fig. 4b) / Mean Diff., Vehicle vs. treated (Fig. 4b) / Mean (Fig. 4b): unit not given here; conditions: for Serum TC (Fig. 4a), group mean (Mean 2) / Mean (Fig. 4b): n=10; for Serum TC (Fig. 4a), Mean Diff. ND vs. treatment (Tukey): ND minus treated; for Serum TC (Fig. 4a), Mean Diff. Vehicle vs. treatment (Tukey): Vehicle minus treated; for Mean Diff., ND vs. treated (Fig. 4b) / Mean Diff., Vehicle vs. treated (Fig. 4b): Tukey's multiple comparisons test; for Mean (Fig. 4b): group mean
Procedure: Fig. 4 Effects of TH analogs on the accumulation of lipids in mice. […] After 3 weeks of injection, serum and liver tissues were collected, and the amount of serum cholesterol (a), serum triglycerides (b), liver cholesterol (c), liver triglycerides (d), and liver total lipids (e) were measured.

[5] = test system: left ventricular cardiomyocytes; assay: Trans-nuclear width of left ventricular cardiomyocytes (hematoxylin-eosin staining); conditions: for Mean Diff. (Vehicle vs. treated group): Vehicle minus treated, Tukey's multiple comparisons test; for Mean (group mean, Fig. 7c; Tukey's multiple comparisons test details) / Mean Diff. (Vehicle vs. treated group): Fig. 7c
Procedure: Male 7-week-old C57BL/6J mice were obtained from a local supplier (Nihon SLC, Shizuoka, Japan). The mice were individually housed in cages (Innocage; ORIENTAL GIKEN) at 23 °C with a 12-h-light–dark cycle starting at 08:00 a.m. […] The injection was prepared by dissolving the compounds in 0.5 N NaOH at a concentration of 100 mM, which was then further diluted with saline to a concentration of either 0.05 or 0.5 mM. The volume of the solution injected was determined based on the body weight of the animal, measured once a week, with 0.05 and 0.5 mM solutions injected at 0.1 and 1 µmol/kg day, respectively. Each group consisted of 10 animals, except for the ND (n = 8) and HFD with saline (vehicle, n = 9) groups. In the ND-treated group, one animal died during the experimental period, and one animal was excluded from the analysis after finding tumor-like lesions in the liver. In the HFD-treated group, one animal was excluded from the analysis because its body weight was less than two standard deviations below the mean.
Heart tissues were fixed, dehydrated, and permeated with paraffin using an automatic fixation and encapsulation device (Sakura Finetech, Japan). Paraffin blocks were prepared using Tissue Tech TEC 6 (Sakura Finetech, Japan), and 5 µm-thick transverse transmural sections were prepared with a microtome (Leica). The sections were deparaffinized, rehydrated, and immersed in Meyer’s hematoxylin solution (FUJIFILM Wako Pure Chemical Industries), followed by eosin staining. Sections were dehydrated and mounted using Entellan New (Merck). Sections were observed under a microscope (BX43; Olympus) at × 400 magnification and digital images were captured using cellSens (Olympus). 100 cells were randomly selected from the left ventricle of an individual mouse, and their trans-nuclear widths were measured according to Oláh et al.[23] using Image J (National Institute of Health).
Heart sections were prepared and subjected to hematoxylin–eosin staining. 100 cells were randomly selected from the left ventricle of an individual mouse, their trans-nuclear widths were measured, and average values were calculated. Data are shown as the mean ± SEM (n = 8–10). Significant differences among groups are indicated by asterisks (*P < 0.05, **P < 0.01, ***P < 0.001, and ****P < 0.0001, one-way ANOVA with Tukey’s post-hoc test) (c).

[6] = test system: high-fat diet (HFD)-induced obesity model mice; assay: Weight of epididymal adipose tissue (visceral fat) in HFD mice; format: in vivo, C57BL/6J mice; conditions: for Fig. 3b (weight of epididymal adipose tissue), group mean (Mean 2) / Epididymal adipose weight, individual mice (Fig. 3b) / weight of the epididymal adipose tissue vs vehicle: HFD mice; for Fig. 3b (weight of epididymal adipose tissue), group mean (Mean 2): n=10; for Fig. 3b (weight of epididymal adipose tissue), group mean (Mean 2) / Fig. 3b (weight of epididymal adipose tissue), Mean Diff. ND vs. treatment (Tukey) / Fig. 3b (weight of epididymal adipose tissue), Mean Diff. Vehicle vs. treatment (Tukey) / Epididymal adipose weight, individual mice (Fig. 3b): in mg (unit assumed); for Fig. 3b (weight of epididymal adipose tissue), Mean Diff. ND vs. treatment (Tukey): ND minus treated; for Fig. 3b (weight of epididymal adipose tissue), Mean Diff. Vehicle vs. treatment (Tukey): Vehicle minus treated; for weight of the epididymal adipose tissue vs vehicle: 3 weeks
Procedure: as §1, §2

[7] = HFD mice, i.p. 1 µmol/kg day, 3 weeks
[8] = HFD mice, 1 μmol/kg day, RT-qPCR, reference gene Rps18
[9] = liver gene expression, 1µmol dose group vs. Vehicle

O=C(O)Cc1cc(C(F)(F)F)c(Cc2ccc(O)c3ccccc23)c(C(F)(F)F)c1 [ZTA-261]
Papp at 30 min, 10 µM [1]: 7.28 ± 2.55 ×10⁻⁶ cm/s | Body weight, 95.00% CI of diff. ND vs. treated ([2]; 0.1 µmol dose group): -17.31 to -8.599 | Body weight, Mean Diff. ND vs. treated ([2]; 0.1 µmol dose group): -12.95 | Body weight, 95.00% CI of diff. Vehicle vs. treated ([2]; 0.1 µmol dose group): -2.779 to 5.659 | Body weight, Mean Diff. Vehicle vs. treated ([2]; 0.1 µmol dose group): 1.44 | Body weight, 95.00% CI of diff. ND vs. treated ([2]; 1 µmol dose group): -11.31 to -2.596 | Body weight, Mean Diff. ND vs. treated ([2]; 1 µmol dose group): -6.951 | Body weight, 95.00% CI of diff. Vehicle vs. treated ([2]; 1 µmol dose group): 3.224 to 11.66 | Body weight, Mean Diff. Vehicle vs. treated ([2]; 1 µmol dose group): 7.443 | Body weight, group mean (Fig. 3a) ([2]; HFD mice, 0.1 µmol dose group): 41.47 | Body weight, individual mice (Fig. 3a) ([2]; HFD mice, 0.1 µmol dose group): 40.29 and 36.71 and 35.46 and 47.2 and 43.74 and 41.64 and 46.66 and 44.04 and 36.76 and 42.23 | Body weight, group mean (Fig. 3a) ([2]; HFD mice, 1 µmol dose group): 35.47 | Body weight, individual mice (Fig. 3a) ([2]; HFD mice, 1 µmol dose group): 32.91 and 31.68 and 37.61 and 39.1 and 35.68 and 36.65 and 37.77 and 35.13 and 35.26 | body weight vs vehicle (in words) ([2]; HFD mice, i.p. 0.1 µmol/kg day, 3 weeks): did not significantly reduce body weight | decrease of body weight compared to vehicle [2, 7]: ~ 20% | Cyp7a1 expression in the liver, individual animal values ([3]; 1µmol, one value per animal): 0.6381 and 0.6001 and 0.9755 and 0.7051 and 0.7377 and 0.8699 and 1.225 and 1.875 and 1.688 and 1.407 | Dio1 expression in the liver, individual animal values ([3]; 1µmol, one value per animal): 2.348 and 0.8674 and 3.4594 and 3.712 and 3.243 and 4.342 and 3.767 and 2.33 and 3.714 and 5.338 | Ldlr expression in the liver, individual animal values ([3]; 1µmol, one value per animal): 0.4288 and 1.672 and 1.891 and 1.348 and 1.361 and 2.264 and 2.662 and 1.059 and 1.183 and 1.422 | Me1 expression in the liver, individual animal values ([3]; 1µmol, one value per animal): 2.009 and 0.7713 and 1.636 and 2.32 and 2.026 and 3.023 and 3.213 and 2.688 and 3.436 and 4.664 | Pnpla2 expression in the liver, individual animal values ([3]; 1µmol, one value per animal): 1.268 and 0.9327 and 2.591 and 7.772 and 2.012 and 5.634 and 5.017 and 1.649 and 3.705 and 2.077 | Srebp1c expression in the liver, individual animal values ([3]; 1µmol, one value per animal): 0.1054 and 0.05247 and 0.1951 and 0.3686 and 0.2695 and 0.5078 and 0.5858 and 0.293 and 0.5057 and 0.124 | Thrsp expression in the liver, individual animal values ([3]; 1µmol, one value per animal): 1.26 and 1.164 and 1.998 and 1.521 and 1.182 and 1.374 and 1.7691 and 1.941 and 1.759 and 2.356 | liver expression of Cyp7a1 vs vehicle [3, 8]: not significantly different | liver expression of Dio1 vs vehicle [3, 8]: significantly upregulated | liver expression of Ldlr vs vehicle [3, 8]: not significantly different | liver expression of Me1 vs vehicle [3, 8]: significantly upregulated | liver expression of Pnpla2 vs vehicle [3, 8]: significantly higher | liver expression of Srebp1c vs vehicle [3, 8]: Although not statistically significant, the ZTA-261-treated group showed decreased Srebp1c expression | liver expression of Thrsp vs vehicle [3, 8]: increased | Pnpla2, Dunn's multiple comparisons test, Mean rank diff. (Vehicle vs. compound) [3, 9]: -17.5 | Srebp1c, Dunn's multiple comparisons test, Mean rank diff. (Vehicle vs. compound) [3, 9]: 13.17 | Pnpla2, Mean rank of treatment group (Mean rank 2) ([3]; liver gene expression, 1µmol dose group, Vehicle mean rank 8): 25.5 | Srebp1c, Mean rank of treatment group (Mean rank 2) ([3]; liver gene expression, 1µmol dose group, Vehicle mean rank […]): 20.5 | Serum TC (Fig. 4a), individual mouse values ([4]; 0.1 µmol, HFD mice): 170.917 and 174.042 and 146.958 and 171.875 and 171.042 and 164.292 and 178.75 and 197.208 and 153.333 and 201.333 | Serum TG (Fig. 4b), individual mouse values ([4]; 0.1 µmol, HFD mice): 76.25 and 92.083 and 101.25 and 78.417 and 57.583 and 89.25 and 104.25 and 84.25 and 81.75 | Serum TC (Fig. 4a), group mean (Mean 2) ([4]; 0.1 µmol, HFD mice): 173 | Serum TC (Fig. 4a), Mean Diff. ND vs. treatment (Tukey) ([4]; 0.1 µmol): 6.447 | Serum TC (Fig. 4a), Mean Diff. Vehicle vs. treatment (Tukey) ([4]; 0.1 µmol): 77.09 | Serum TC (Fig. 4a), individual mouse values ([4]; 1 µmol, HFD mice): 100.083 and 106.125 and 141.958 and 148.125 and 147.292 and 139.708 and 132.5 and 117.5 and 94.583 and 113 | Serum TG (Fig. 4b), individual mouse values ([4]; 1 µmol, HFD mice): 52.917 and 53.75 and 90.417 and 88.75 and 67.917 and 87.917 and 73.75 and 69.583 and 82.083 and 85.417 | Serum TC (Fig. 4a), group mean (Mean 2) ([4]; 1 µmol, HFD mice): 124.1 | Serum TC (Fig. 4a), Mean Diff. ND vs. treatment (Tukey) ([4]; 1 µmol): 55.33 | Serum TC (Fig. 4a), Mean Diff. Vehicle vs. treatment (Tukey) ([4]; 1 µmol): 126 | Mean Diff., ND vs. treated (Fig. 4b) ([4]; ND minus 0.1 µmol group): 62.42 | Mean Diff., ND vs. treated (Fig. 4b) ([4]; ND minus 1 µmol group): 71.52 | Mean Diff., Vehicle vs. treated (Fig. 4b) ([4]; Vehicle minus 0.1 µmol group): 31.43 | Mean Diff., Vehicle vs. treated (Fig. 4b) ([4]; Vehicle minus 1 µmol group): 40.53 | Mean (Fig. 4b) ([4]; 0.1 µmol, HFD mice): 84.35 | Mean (Fig. 4b) ([4]; 1 µmol, HFD mice): 75.25 | serum triglyceride level vs vehicle [4, 7]: decreased | cardiac width (Fig. 7c), individual values ([5]; 0.1 µmol dose group): 11.9852 and 12.1667 and 12.7952 and 11.4055 and 11.1301 and 11.9423 and 11.9907 and 12.4833 and 12.1061 and 13.5905 | cardiac width (Fig. 7c), individual values ([5]; 1 µmol dose group): 12.0147 and 12.4259 and 11.3636 and 12.41 and 12.0185 and 12.8514 and 11.9471 and 13.2394 and 12.2836 and 12.7848 | Mean (group mean, Fig. 7c; Tukey's multiple comparisons test details) ([5]; HFD mice, dose 0.1 µmol): 12.16 | Mean (group mean, Fig. 7c; Tukey's multiple comparisons test details) ([5]; HFD mice, dose 1 µmol): 12.33 | transnuclear width of left ventricular cardiomyocytes vs vehicle [5, 7]: significantly increased | Mean Diff. (Vehicle vs. treated group) ([5]; dose 0.1 µmol): -1.182 | Mean Diff. (Vehicle vs. treated group) ([5]; dose 1 µmol): -1.356 | Fig. 3b (weight of epididymal adipose tissue), group mean (Mean 2) ([6]; 0.1 µmol): 2650 | Fig. 3b (weight of epididymal adipose tissue), Mean Diff. ND vs. treatment (Tukey) ([6]; 0.1 µmol): -1966 | Fig. 3b (weight of epididymal adipose tissue), Mean Diff. Vehicle vs. treatment (Tukey) ([6]; 0.1 µmol): 208.4 | Fig. 3b (weight of epididymal adipose tissue), group mean (Mean 2) ([6]; 1 µmol): 1679 | Fig. 3b (weight of epididymal adipose tissue), Mean Diff. ND vs. treatment (Tukey) ([6]; 1 µmol): -996 | Fig. 3b (weight of epididymal adipose tissue), Mean Diff. Vehicle vs. treatment (Tukey) ([6]; 1 µmol): 1179 | Epididymal adipose weight, individual mice (Fig. 3b) ([6]; 0.1 µmol dose group): 2776.2 and 2045.1 and 1929.4 and 2510.8 and 2876.4 and 3044.5 and 3312.5 and 2871.5 and 2180.4 and 2949.5 | Epididymal adipose weight, individual mice (Fig. 3b) ([6]; 1 µmol dose group): 1625 and 1387 and 1309.2 and 1666.6 and 1860.1 and 1033.5 and 2042 and 1824.7 and 1973.2 and 2072 | weight of the epididymal adipose tissue vs vehicle ([6]; i.p. 0.1 µmol/kg day): did not show any obvious effect | weight of the epididymal adipose tissue vs vehicle ([6]; i.p. 1 µmol/kg day): decreased significantly
